Experimental data from patent US11802120B2, “Fused cyclic urea derivatives as CRHR2 antagonist” (RaQualia Pharma Inc., priority 2018, dated 2023).

What follows are compounds tested against T1, human CRHR2-alpha (Homo sapiens, UniProt Q13324) (assay: cAMP functional assay for human CRHR2 (LANCE Ultra cAMP, TR-FRET)). Conditions: CHO-K1 cells expressing human CRHR2-alpha, agonist human urocortin2 at EC80, cAMP; read-out: IC50 against CRHR2.
T1 sequence (Q13324 1-411): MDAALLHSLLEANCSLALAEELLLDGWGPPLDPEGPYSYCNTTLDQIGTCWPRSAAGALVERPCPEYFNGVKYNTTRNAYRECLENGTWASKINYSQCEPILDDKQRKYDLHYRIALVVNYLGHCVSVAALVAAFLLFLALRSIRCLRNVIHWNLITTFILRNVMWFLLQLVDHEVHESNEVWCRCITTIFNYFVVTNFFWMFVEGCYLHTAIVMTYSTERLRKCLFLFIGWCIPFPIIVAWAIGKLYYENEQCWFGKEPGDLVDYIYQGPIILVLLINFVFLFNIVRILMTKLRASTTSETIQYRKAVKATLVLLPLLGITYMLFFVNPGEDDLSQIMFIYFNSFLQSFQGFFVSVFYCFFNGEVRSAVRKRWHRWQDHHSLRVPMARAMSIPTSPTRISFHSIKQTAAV
Assay type: cell-based
Protocol: cAMP functional assay for human CRHR1 and CRHR2
The ability of the compounds of this invention to inhibit either CRHR2 or CRHR1 is assessed by 3′,5′-cyclic adenosine monophosphate (cAMP) production in cells using the LANCE Ultra cAMP assay kit (ParkinElmer), which are designed based on the homogeneous time-resolved fluorescence resonance energy transfer (TR-FRET) immunoassay.
CHO-K1 (Chinese hamster ovary) cells stably expressing either human CRHR2-alpha (DiscoveRX, Cat. 95-0048C2) or human CRHR1-beta (DiscoveRX, Cat. 95-0047C2) are grown in HAM's F12 media supplemented with 10% fetal bovine serum (FBS), 100 units/mL penicillin, 100 microg/mL hygromycin and 0.5 microg/mL geneticin at 37° C. in 5% CO2 humidified incubator to 80% confluence. After 7 hours starvation treatment in culture media containing 0.1% FBS, the cells are washed with Hanks balanced salt solution (HBSS) and cryopreserved.
For cAMP assay, frozen cells are thawed and washed with HBSS, followed by resuspended in assay buffer (HBSS containing 0.1% bovine serum albumin, 0.5 mM isobutylmethylxanthine and 5 mM Hepes, pH 7.4) at the appropriate concentration for the assay. The cell suspensions are plated on 384-well microplates (Greiner Bio-One) at a density of 4,000 cells per well. After preincubating the cells with various concentrations of the compounds for 30 min at 25° C., an assay buffer containing EC80 concentration of each agonist is added and the cells are incubated for 30 min at 25° C. Human urocortin2 (Peptide Institute) and CRF (Peptide Institute) are used as agonists for CRHR2 and CRHR1, respectively. For the termination of assay, europium-labeled cAMP tracer and ULight (registered trademark) dye labeled cAMP antibodies, both prepared with Lance-Ultra cAMP detection reagent (Perkin Elmer) are added in the plate and incubate for 60 min at 25° C. After incubation, TR-FRET signal is detected by EnVision plate reader (PerkinElmer). The IC50 values for compounds are calculated from dose-response curves by fitting the percent inhibition using XLfit (ID Business Solutions).

| IC50 | SMILES |
| --- | --- |
| < 300 nM | C=Cc1ccc(-n2c(=O)n(C[C@H]3CC[C@H](NC(=O)c4cc(Cl)cnc4C)CC3)c3ccccc32)cn1 [Example 70, 5-chloro-2-methyl-N-((1r,4r)-4-((2-oxo-3-(6-vinylpyridin-3-yl)-2,3-dihydro-1H-benzo[d]imidazol-1-yl)methyl)cyclohexyl)nicotinamide] |
| < 300 nM | CCc1ccc(-n2c(=O)n(C[C@H]3CC[C@H](NC(=O)c4cc(Cl)cnc4C)CC3)c3ccccc32)cn1 [Example 72, 5-chloro-N-((1r,4r)-4-((3-(6-ethylpyridin-3-yl)-2-oxo-2,3-dihydro-1H-benzo[d]imidazol-1-yl)methyl)cyclohexyl)-2-methylnicotinamide] |
| < 300 nM | C=Cc1cc(-n2c(=O)n(C[C@H]3CC[C@H](NC(=O)c4cc(Cl)cnc4C)CC3)c3ccccc32)ccn1 [Example 82, 5-chloro-2-methyl-N-((1r,4r)-4-((2-oxo-3-(2-vinylpyridin-4-yl)-2,3-dihydro-1H-benzo [d]imidazol-1-yl)methyl)cyclohexyl)nicotinamide] |
| < 300 nM | Cc1ncc(Cl)cc1C(=O)N[C@H]1CC[C@H](Cn2c(=O)n(-c3ccc(C4=CCOCC4)nc3)c3ccccc32)CC1 [Example 84, 5-chloro-N-((1r,4r)-4-((3-(6-(3,6-dihydro-2H-pyran-4-yl)pyridin-3-yl)-2-oxo-2,3-dihydro-1H-benzo[d]imidazol-1-yl)methyl)cyclohexyl)-2-methylnicotinamide] |
| < 300 nM | Cc1ncc(Cl)cc1C(=O)N[C@H]1CC[C@H](Cn2c(=O)n(-c3ccc(C4CC4)nc3)c3ccccc32)CC1 [Example 86, 5-chloro-N-((1r,4r)-4-((3-(6-cyclopropylpyridin-3-yl)-2-oxo-2,3-dihydro-1H-benzo[d]imidazol-1-yl)methyl)cyclohexyl)-2-methylnicotinamide] |
| < 300 nM | Cc1ncc(Cl)cc1C(=O)N[C@H]1CC[C@H](Cn2c(=O)n(-c3ccc(-c4ccccc4)nc3)c3ccccc32)CC1 [Example 89, 5-chloro-2-methyl-N-((1r,4r)-4-((2-oxo-3-(6-phenylpyridin-3-yl)-2,3-dihydro-1H-benzo[d]imidazol-1-yl)methyl)cyclohexyl)nicotinamide] |
| < 300 nM | Cc1ncc(Cl)cc1C(=O)N[C@H]1CC[C@H](Cn2c(=O)n(-c3ccc(-c4ccccc4CO)nc3)c3ccccc32)CC1 [Example 90, 5-chloro-N-((1r,4r)-4-((3-(6-(2-(hydroxymethyl)phenyl)pyridin-3-yl)-2-oxo-2,3-dihydro-1H-benzo[d]imidazol-1-yl)methyl)cyclohexyl)-2-methylnicotinamide] |
| < 300 nM | Cc1ncc(Cl)cc1C(=O)N[C@H]1CC[C@H](Cn2c(=O)n(-c3ccc(N4CCCC(O)C4)nc3)c3ccccc32)CC1 (stereo partly drawn) [Example 95, 5-chloro-N-((1r,4r)-4-((3-(6-(3-hydroxypiperidin-1-yl)pyridin-3-yl)-2-oxo-2,3-dihydro-1H-benzo[d]imidazol-1-yl)methyl)cyclohexyl)-2-methylnicotinamide] |
| < 300 nM | Cc1ncc(Cl)cc1C(=O)N[C@H]1CC[C@H](Cn2c(=O)n(-c3ccc(N4CCC(O)CC4)nc3)c3ccccc32)CC1 [Example 96, 5-chloro-N-((1r,4r)-4-((3-(6-(4-hydroxypiperidin-1-yl)pyridin-3-yl)-2-oxo-2,3-dihydro-1H-benzo[d]imidazol-1-yl)methyl)cyclohexyl)-2-methylnicotinamide] |
| < 300 nM | Cc1ncc(Cl)cc1C(=O)N[C@H]1CC[C@H](Cn2c(=O)n(-c3ccc(OC(F)F)nc3)c3ccccc32)CC1 [Example 97, 5-chloro-N-((1r,4r)-4-((3-(6-(difluoromethoxy)pyridin-3-yl)-2-oxo-2,3-dihydro-1H-benzo[d]imidazol-1-yl)methyl)cyclohexyl)-2-methylnicotinamide] |
| < 300 nM | Cc1ncc(Cl)cc1C(=O)N[C@H]1CC[C@H](Cn2c(=O)n(-c3ccc(NC4CC4)nc3)c3ccccc32)CC1 [Example 101, 5-chloro-N-((1r,4r)-4-((3-(6-(cyclopropylamino)pyridin-3-yl)-2-oxo-2,3-dihydro-1H-benzo[d]imidazol-1-yl)methyl)cyclohexyl)-2-methylnicotinamide] |
| < 300 nM | Cc1ncc(Cl)cc1C(=O)N[C@H]1CC[C@H](Cn2c(=O)n(-c3ccc(NCC4CC4)nc3)c3ccccc32)CC1 [Example 105, 5-chloro-N-((1r,4r)-4-((3-(6-((cyclopropylmethyl)amino)pyridin-3-yl)-2-oxo-2,3-dihydro-1H-benzo[d]imidazol-1-yl)methyl)cyclohexyl)-2-methylnicotinamide] |
| < 300 nM | Cc1ncc(Cl)cc1C(=O)N[C@H]1CC[C@H](Cn2c(=O)n(-c3ccc(N[C@@H]4CCOC4)nc3)c3ccccc32)CC1 [Example 107, 5-chloro-2-methyl-N-((1R,4R)-4-((2-oxo-3-(6-(((R)-tetrahydro-furan-3-yl)amino)pyridin-3-yl)-2,3-dihydro-1H-benzo[d]imidazol-1-yl)methyl)cyclohexyl) nicotinamide] |
| < 300 nM | Cc1ncc(Cl)cc1C(=O)N[C@H]1CC[C@H](Cn2c(=O)n(-c3ccc(NC4CC(F)(F)C4)nc3)c3ccccc32)CC1 [Example 108, 5-chloro-N-((1r,4r)-4-((3-(6-((3,3-difluorocyclobutyl)amino)pyridin-3-yl)-2-oxo-2,3-dihydro-1H-benzo[d]imidazol-1-yl)methyl)cyclohexyl)-2-methylnicotinamide] |
| < 300 nM | Cc1ncc(Cl)cc1C(=O)N[C@H]1CC[C@H](Cn2c(=O)n(-c3ccc(NC[C@@H]4CCCO4)nc3)c3ccccc32)CC1 [Example 109, 5-chloro-2-methyl-N-((1S,4r)-4-((2-oxo-3-(6-((((S)-tetrahydro-furan-2-yl)methyl)amino)pyridin-3-yl)-2,3-dihydro-1H-benzo[d]imidazol-1-yl)methyl)cyclohexyl)nicotinamide] |
| < 300 nM | Cc1ncc(Cl)cc1C(=O)N[C@H]1CC[C@H](Cn2c(=O)n(-c3ccc(NC[C@H]4CCCO4)nc3)c3ccccc32)CC1 [Example 110, 5-chloro-2-methyl-N-((1R,4r)-4-((2-oxo-3-(6-((((R)-tetra-hydrofuran-2-yl)methyl)amino)pyridin-3-yl)-2,3-dihydro-1H-benzo[d]imidazol-1-yl)methyl)cyclohexyl)nicotinamide] |
| < 300 nM | Cc1ncc(Cl)cc1C(=O)N[C@H]1CC[C@H](Cn2c(=O)n(-c3ccc(N4CCCC4=O)nc3)c3ccccc32)CC1 [Example 111, 5-chloro-2-methyl-N-((1r,4r)-4-((2-oxo-3-(6-(2-oxopyrrolidin-1-yl)pyridin-3-yl)-2,3-dihydro-1H-benzo[d]imidazol-1-yl)methyl)cyclohexyl)nicotinamide] |
| < 300 nM | Cc1ncc(Cl)cc1C(=O)N[C@H]1CC[C@H](Cn2c(=O)n(-c3ccc(OCC4CC4)nc3)c3ccccc32)CC1 [Example 112, 5-chloro-N-(4-((3-(6-(cyclopropylmethoxy)pyridin-3-yl)-2-oxo-2,3-dihydro-1H-benzo [d]imidazol-1-yl)methyl)cyclohexyl)-2-methylnicotinamide] |
| < 300 nM | Cc1ncc(Cl)cc1C(=O)N[C@H]1CC[C@H](Cn2c(=O)n(-c3ccc(OC4CC4)nc3)c3ccccc32)CC1 [Example 113, 5-chloro-N-(4-((3-(6-cyclopropoxypyridin-3-yl)-2-oxo-2,3-dihydro-1H-benzo [d]imidazol-1-yl)methyl)cyclohexyl)-2-methylnico-tinamide] |
| < 300 nM | CNc1cnc(-n2c(=O)n(C[C@H]3CC[C@H](NC(=O)c4cc(Cl)cnc4C)CC3)c3ccccc32)cn1 [Example 115, 5-chloro-2-methyl-N-((1r,4r)-4-((3-(5-(methylamino)pyrazin-2-yl)-2-oxo-2,3-dihydro-1H-benzo [d]imidazol-1-yl)methyl)cyclo-hexyl)nicotinamide] |
| < 300 nM | Cc1ncc(Cl)cc1C(=O)N[C@H]1CC[C@H](Cn2c(=O)n(-c3cnc(N(C)C)cn3)c3ccccc32)CC1 [Example 116, 5-chloro-N-((1r,4r)-4-((3-(5-(dimethylamino)pyrazin-2-yl)-2-oxo-2,3-dihydro-1H-benzo[d]imidazol-1-yl)methyl)cyclo-hexyl)-2-methylnicotinamide] |
